Laboratory results published in patent publication US8722589B2, “Use of 1-alkyl-5-oxopyrrolidine-3-carboxylic esters as gas hydrate inhibitors with improved biodegradability” (Clariant Finance (BVI) Limited, priority 2007, dated 2014).

test: Agglomerate inhibition in stirred autoclave (water/white spirit/natural gas); conditions: 5000 ppm based on water phase; water and white spirit 1:2; 50 bar; 500 rpm; 4° C.
Description: (§1) To investigate the inhibiting action of the 1-alkyl-5-oxopyrrolidine-3-carboxylic esters, a stirred steel autoclave with temperature control, pressure and torque sensor of capacity 450 ml was used. For studies of kinetic inhibition, the autoclave was filled with distilled water and gas in a volume ratio of 20:80; for studies of agglomerate inhibition, condensate was additionally added. Subsequently, 50 bar of natural gas were injected.
(§2) The measure used for the inhibiting action of the product is the time from the attainment of the minimum temperature of 4° C. until the first gas absorption (Tind) or the time until the torque rises (Tagg). Long induction times or agglomeration times indicate an effect as a kinetic inhibitor. The torque measured in the autoclave serves, in contrast, as a parameter for the agglomeration of the hydrate crystals.
In order to test the action as agglomerate inhibitors, the test autoclave used above was initially charged with water and white spirit (20% of the volume in a ratio of 1:2) and, based on the water phase, 5000 ppm of the particular additive were added.
At an autoclave pressure of 50 bar and a stirrer speed of 500 rpm, the temperature was cooled from initially 20° C. within 3 hours to 4° C., then the autoclave was stirred at 4° C. for 18 hours and heated up again. In the course of this, the agglomeration time up to occurrence of gas hydrate agglomerates and the torque which occurred on the stirrer at that time were measured, the latter being a measure of the agglomeration of the gas hydrates.
The comparative substance employed was a commercially available antiagglomerant (quaternary ammonium salt).

Compound	Mmax (torque on the stirrer) [Ncm]	Tagg (agglomeration time up to occurrence of gas hydrate agglomerates) [h]
CCCCCCCC/C=C\CCCCCCCCN1CC(C(=O)OCC(C)C)CC1=O (stereo not shown) [Example 19, isobutyl 1-oleyl-5-oxopyrrolidine-3-carboxylate]	1.2	6.0
CCCCCCCC/C=C\CCCCCCCCN1CC(C(=O)OCC(CC)CCCC)CC1=O (stereo not shown) [Example 20, 2-ethylhexyl 1-oleyl-5-oxopyrrolidine-3-carboxylate]	2.1	3.5
CCCCCCCC/C=C\CCCCCCCCN1CC(C(=O)OCC(COC(=O)C2CC(=O)N(CCCCCCCC/C=C\CCCCCCCC)C2)OC(=O)C2CC(=O)N(CCCCCCCC/C=C\CCCCCCCC)C2)CC1=O (stereo not shown) [Example 21, glyceryl tri(1-oleyl-5-oxopyrrolidine-3-carboxylate)]	2.0	2.9
CCCCCCCC/C=C\CCCCCCCCN1CC(C(=O)OCC(CO)(CO)COC(=O)C2CC(=O)N(CCCCCCCC/C=C\CCCCCCCC)C2)CC1=O (stereo not shown) [Example 22, pentaerythrityl di(1-oleyl-5-oxopyrrolidine-3-carboxylate)]	1.9	3.8
CCCCCCCC/C=C\CCCCCCCCN1CC(C(=O)OCC(CO)(COCC(CO)(COC(=O)C2CC(=O)N(CCCCCCCC/C=C\CCCCCCCC)C2)COC(=O)C2CC(=O)N(CCCCCCCC/C=C\CCCCCCCC)C2)COC(=O)C2CC(=O)N(CCCCCCCC/C=C\CCCCCCCC)C2)CC1=O (stereo not shown) [Example 23, dipentaerythrityl tetra(1-oleyl-5-oxopyrrolidine-3-carboxylate)]	2.0	3.8
(oleyl alcohol+5 EO) 1-isobutyl-5-oxopyrrolidine-3-carboxylate [Example 16]	1.0	5.9
(oleyl alcohol+5 EO) 1-methyl-5-oxopyrrolidine-3-carboxylate [Example 7]	0.9	6.5

test: Biodegradability to OECD 306; conditions: not given

Compound	Biodegradability 28 days (OECD 306)
CN1CC(C(=O)OCC(COC(=O)C2CC(=O)N(C)C2)OC(=O)C2CC(=O)N(C)C2)CC1=O (stereo not shown) [Example 3, glyceryl tri(1-methyl-5-oxopyrrolidine-3-carboxylate)]	90
CC(C)CN1CC(C(=O)OCC(COC(=O)C2CC(=O)N(CC(C)C)C2)OC(=O)C2CC(=O)N(CC(C)C)C2)CC1=O (stereo not shown) [Example 12, glyceryl tri(1-isobutyl-5-oxopyrrolidine-3-carboxylate)]	85

test: Kinetic gas hydrate inhibition in stirred steel autoclave (water/natural gas); conditions: 5000 ppm based on water phase; 50 bar natural gas; cooled 20° C. to 4° C.; water:gas 20:80
Description: as §1
At first, a pressure decrease corresponding to the thermal compression of the gas is observed. When the formation of gas hydrate nuclei occurs during the cooling time, the pressure measured falls, and a rise in the torque measured and a slight increase in the temperature are observed. […] When the mixture is heated, the gas hydrates decompose, so that the starting state of the experimental series is attained.
as §2
Composition of the natural gas used:
The dosage in all tests was 5000 ppm based on the water phase.

Compound	Tagg (time until the torque rises) [h]	Tind (time from attainment of 4° C. until first gas absorption) [h]
CC(C)COC(=O)C1CC(=O)N(C)C1 (stereo not shown) [Example 1, isobutyl 1-methyl-5-oxopyrrolidine-3-carboxylate]	11.0	10.9
CCCCC(CC)COC(=O)C1CC(=O)N(C)C1 (stereo not shown) [Example 2, 2-ethylhexyl 1-methyl-5-oxopyrrolidine-3-carboxylate]	11.7	11.5
CN1CC(C(=O)OCC(COC(=O)C2CC(=O)N(C)C2)OC(=O)C2CC(=O)N(C)C2)CC1=O (stereo not shown) [Example 3, glyceryl tri(1-methyl-5-oxopyrrolidine-3-carboxylate)]	12.5	12.0
CN1CC(C(=O)OCC(CO)(CO)COC(=O)C2CC(=O)N(C)C2)CC1=O (stereo not shown) [Example 4, pentaerythritol di(1-methyl-5-oxopyrrolidine-3-carboxylate)]	11.5	11.4
CN1CC(C(=O)OCC(CO)(COCC(CO)(COC(=O)C2CC(=O)N(C)C2)COC(=O)C2CC(=O)N(C)C2)COC(=O)C2CC(=O)N(C)C2)CC1=O (stereo not shown) [Example 5, dipentaerythrityl tetra(1-methyl-5-oxopyrrolidine-3-carboxylate)]	10.1	10.0
CCCCOCCOCCOCCOC(=O)C1CC(=O)N(C)C1 (stereo not shown) [Example 6, butyltriglycol 1-methyl-5-oxopyrrolidine-3-carboxylate]	13.4	13.1
CC(C)COC(=O)C1CC(=O)N(CC(C)C)C1 (stereo not shown) [Example 10, isobutyl 1-isobutyl-5-oxopyrrolidine-3-carboxylate]	17.0	16.1
CCCCC(CC)COC(=O)C1CC(=O)N(CC(C)C)C1 (stereo not shown) [Example 11, 2-ethylhexyl 1-isobutyl-5-oxopyrrolidine-3-carboxylate]	18.3	17.5
CC(C)CN1CC(C(=O)OCC(COC(=O)C2CC(=O)N(CC(C)C)C2)OC(=O)C2CC(=O)N(CC(C)C)C2)CC1=O (stereo not shown) [Example 12, glyceryl tri(1-isobutyl-5-oxopyrrolidine-3-carboxylate)]	18.8	18.1
CC(C)CN1CC(C(=O)OCC(CO)(CO)COC(=O)C2CC(=O)N(CC(C)C)C2)CC1=O (stereo not shown) [Example 13, pentaerythrityl di(1-isobutyl-5-oxopyrrolidine-3-carboxylate)]	17.4	16.9
CCCCOCCOCCOCCOC(=O)C1CC(=O)N(CC(C)C)C1 (stereo not shown) [Example 15, butyltriglycol 1-isobutyl-5-oxopyrrolidine-3-carboxylate]	17.2	16.1
dipentaerythrityl tetra(1-isobutyl-5-oxopyrrolidine-3-carboxylate) [Example 14]	15.9	15.3
